In patent publication US6518243B1, “Desleucyl glycopeptide antibiotics and methods of making same” (Trustees of Princeton University, priority 1999, dated 2003):

test system: E. faecalis (CL 4877); assay: Zone of inhibition screen, 96 well agar array format; type: cell-based; design: scale not given here; conditions: zone of inhibition relative to 1 mg/ml p-chlorobiphenylvancomycin
Method: (§1) The antibacterial activity of each of the compounds against the bacterial strains E. faceium (ATCC 49624), S. epidermidis (ATCC 12228), S. aureus (ATCC 29213), E. faecalis (CL 4877) and E. faecalis (ATCC 292121) was tested. Each of the compounds was screened in a 96 will agar array format.

SMILES	zone score, E. faecalis CL 4877
CCSCC(=O)NC1C(=O)NC(CC(N)=O)C(=O)NC2C(=O)NC3C(=O)NC(C(=O)NC(C(=O)O)c4cc(O)cc(O)c4-c4cc3ccc4O)C(O)c3ccc(c(Cl)c3)Oc3cc2cc(c3OC2OC(CO)C(O)C(O)C2OC2CC(C)(NCc3ccc(-c4ccc(Cl)cc4)cc3)C(O)C(C)O2)Oc2ccc(cc2Cl)C1O (stereo not drawn) [Compound 225]	2
CC1OC(OC2C(Oc3c4cc5cc3Oc3ccc(cc3Cl)C(O)C3NC(=O)C(NC(=O)C5NC(=O)C(CC(N)=O)NC(=O)C(NC(=O)c5cccnc5O)C(O)c5ccc(c(Cl)c5)O4)c4ccc(O)c(c4)-c4c(O)cc(O)cc4C(C(=O)O)NC3=O)OC(CO)C(O)C2O)CC(C)(NCc2ccc(-c3ccc(Cl)cc3)cc2)C1O (stereo not drawn) [Compound 241]	2
CCC(=O)C(=O)NC1C(=O)NC(CC(N)=O)C(=O)NC2C(=O)NC3C(=O)NC(C(=O)NC(C(=O)O)c4cc(O)cc(O)c4-c4cc3ccc4O)C(O)c3ccc(c(Cl)c3)Oc3cc2cc(c3OC2OC(CO)C(O)C(O)C2OC2CC(C)(NCc3ccc(-c4ccc(Cl)cc4)cc3)C(O)C(C)O2)Oc2ccc(cc2Cl)C1O (stereo not drawn) [Compound 242]	2
CC1OC(OC2C(Oc3c4cc5cc3Oc3ccc(cc3Cl)C(O)C3NC(=O)C(NC(=O)C5NC(=O)C(CC(N)=O)NC(=O)C(NC(=O)CC(F)(F)F)C(O)c5ccc(c(Cl)c5)O4)c4ccc(O)c(c4)-c4c(O)cc(O)cc4C(C(=O)O)NC3=O)OC(CO)C(O)C2O)CC(C)(NCc2ccc(-c3ccc(Cl)cc3)cc2)C1O (stereo not drawn) [Compound 249]	2
C[C@H]1O[C@H](O[C@H]2[C@H](Oc3c4cc5cc3Oc3ccc(cc3Cl)[C@@H](O)[C@@H](NC(=O)/C=C/c3ccc(Cl)c(Cl)c3)C(=O)N[C@@H](CC(N)=O)C(=O)N[C@H]5C(=O)N[C@H]3C(=O)N[C@H](C(=O)N[C@@H](C(=O)O)c5cc(O)cc(O)c5-c5cc3ccc5O)[C@H](O)c3ccc(c(Cl)c3)O4)O[C@H](CO)[C@@H](O)[C@@H]2O)C[C@@](C)(NCc2ccc(-c3ccc(Cl)cc3)cc2)[C@H]1O [Compound 251]	2
CC1OC(OC2C(Oc3c4cc5cc3Oc3ccc(cc3Cl)C(O)C3NC(=O)C(NC(=O)C5NC(=O)C(CC(N)=O)NC(=O)C(NC(=O)c5ccc(N)cc5)C(O)c5ccc(c(Cl)c5)O4)c4ccc(O)c(c4)-c4c(O)cc(O)cc4C(C(=O)O)NC3=O)OC(CO)C(O)C2O)CC(C)(NCc2ccc(-c3ccc(Cl)cc3)cc2)C1O (stereo not drawn) [Compound 268]	2
CC1OC(OC2C(Oc3c4cc5cc3Oc3ccc(cc3Cl)C(O)C3NC(=O)C(NC(=O)C5NC(=O)C(CC(N)=O)NC(=O)C(NC(=O)c5cccnc5)C(O)c5ccc(c(Cl)c5)O4)c4ccc(O)c(c4)-c4c(O)cc(O)cc4C(C(=O)O)NC3=O)OC(CO)C(O)C2O)CC(C)(NCc2ccc(-c3ccc(Cl)cc3)cc2)C1O (stereo not drawn) [Compound 307]	2
CC1OC(OC2C(Oc3c4cc5cc3Oc3ccc(cc3Cl)C(O)C3NC(=O)C(NC(=O)C5NC(=O)C(CC(N)=O)NC(=O)C(NC(=O)c5ccccc5O)C(O)c5ccc(c(Cl)c5)O4)c4ccc(O)c(c4)-c4c(O)cc(O)cc4C(C(=O)O)NC3=O)OC(CO)C(O)C2O)CC(C)(NCc2ccc(-c3ccc(Cl)cc3)cc2)C1O (stereo not drawn) [Compound 315]	2
CC1OC(OC2C(Oc3c4cc5cc3Oc3ccc(cc3Cl)C(O)C3NC(=O)C(NC(=O)C5NC(=O)C(CC(N)=O)NC(=O)C(NC(=O)C5CCOC5)C(O)c5ccc(c(Cl)c5)O4)c4ccc(O)c(c4)-c4c(O)cc(O)cc4C(C(=O)O)NC3=O)OC(CO)C(O)C2O)CC(C)(NCc2ccc(-c3ccc(Cl)cc3)cc2)C1O (stereo not drawn) [Compound 317]	2

same assay, conditions: zone of inhibition relative to 1 mg/ml stock solution of p-chlorobiphenylvancomycin

SMILES	zone score, E. faecalis CL 4877
CC1OC(OC2C(Oc3c4cc5cc3Oc3ccc(cc3Cl)C(O)C3NC(=O)C(NC(=O)C5NC(=O)C(CC(N)=O)NC(=O)C(NC(=O)C(Cc5c[nH]cn5)NC(N)=O)C(O)c5ccc(c(Cl)c5)O4)c4ccc(O)c(c4)-c4c(O)cc(O)cc4C(C(=O)O)NC3=O)OC(CO)C(O)C2O)CC(C)(NCc2ccc(-c3ccc(Cl)cc3)cc2)C1O (stereo not drawn) [Compound 192]	2

test system: S. aureus (ATCC 29213); assay: as above; type: cell-based; design: scale not given here; conditions: zone of inhibition relative to 1 mg/ml p-chlorobiphenylvancomycin
Method: as §1

SMILES	zone score, S. aureus ATCC 29213
COC(=O)C1=C(C)NC(=O)C1CC(=O)NC1C(=O)NC(CC(N)=O)C(=O)NC2C(=O)NC3C(=O)NC(C(=O)NC(C(=O)O)c4cc(O)cc(O)c4-c4cc3ccc4O)C(O)c3ccc(c(Cl)c3)Oc3cc2cc(c3OC2OC(CO)C(O)C(O)C2OC2CC(C)(NCc3ccc(-c4ccc(Cl)cc4)cc3)C(O)C(C)O2)Oc2ccc(cc2Cl)C1O (mixture of isomers) [Compound 299]	2
CC(C)=C(N)C(=O)NC1C(=O)NC(CC(N)=O)C(=O)NC2C(=O)NC3C(=O)NC(C(=O)NC(C(=O)O)c4cc(O)cc(O)c4-c4cc3ccc4O)C(O)c3ccc(c(Cl)c3)Oc3cc2cc(c3OC2OC(CO)C(O)C(O)C2OC2CC(C)(NCc3ccc(-c4ccc(Cl)cc4)cc3)C(O)C(C)O2)Oc2ccc(cc2Cl)C1O (stereo not drawn) [Compound 216]	2
CC1OC(OC2C(Oc3c4cc5cc3Oc3ccc(cc3Cl)C(O)C(NC(=O)C3(N)CC3)C(=O)NC(CC(N)=O)C(=O)NC5C(=O)NC3C(=O)NC(C(=O)NC(C(=O)O)c5cc(O)cc(O)c5-c5cc3ccc5O)C(O)c3ccc(c(Cl)c3)O4)OC(CO)C(O)C2O)CC(C)(NCc2ccc(-c3ccc(Cl)cc3)cc2)C1O (stereo not drawn) [Compound 218]	2

same assay, conditions: zone of inhibition relative to 1 mg/ml stock solution of p-chlorobiphenylvancomycin

SMILES	zone score, S. aureus ATCC 29213
CC1OC(OC2C(Oc3c4cc5cc3Oc3ccc(cc3Cl)C(O)C(NC(=O)C3OC(O)C(O)C3O)C(=O)NC(CC(N)=O)C(=O)NC5C(=O)NC3C(=O)NC(C(=O)NC(C(=O)O)c5cc(O)cc(O)c5-c5cc3ccc5O)C(O)c3ccc(c(Cl)c3)O4)OC(CO)C(O)C2O)CC(C)(NCc2ccc(-c3ccc(Cl)cc3)cc2)C1O (mixture of isomers) [Compound 128]	2
C[C@H]1O[C@H](O[C@H]2[C@H](Oc3c4cc5cc3Oc3ccc(cc3Cl)[C@@H](O)[C@@H](NC(=O)[C@@H](N)Cc3ccc(OC(C)(C)C)cc3)C(=O)N[C@@H](CC(N)=O)C(=O)N[C@H]5C(=O)N[C@H]3C(=O)N[C@H](C(=O)N[C@@H](C(=O)O)c5cc(O)cc(O)c5-c5cc3ccc5O)[C@H](O)c3ccc(c(Cl)c3)O4)O[C@H](CO)[C@@H](O)[C@@H]2O)C[C@@](C)(NCc2ccc(-c3ccc(Cl)cc3)cc2)[C@H]1O [Compound 19]	2
CC1OC(OC2C(Oc3c4cc5cc3Oc3ccc(cc3Cl)C(O)C3NC(=O)C(NC(=O)C5NC(=O)C(CC(N)=O)NC(=O)C(NC(=O)c5[nH]c(=O)[nH]c(=O)c5N)C(O)c5ccc(c(Cl)c5)O4)c4ccc(O)c(c4)-c4c(O)cc(O)cc4C(C(=O)O)NC3=O)OC(CO)C(O)C2O)CC(C)(NCc2ccc(-c3ccc(Cl)cc3)cc2)C1O (stereo not drawn) [Compound 109]	2
CC(=O)NC(C)C(=O)NC1C(=O)NC(CC(N)=O)C(=O)NC2C(=O)NC3C(=O)NC(C(=O)NC(C(=O)O)c4cc(O)cc(O)c4-c4cc3ccc4O)C(O)c3ccc(c(Cl)c3)Oc3cc2cc(c3OC2OC(CO)C(O)C(O)C2OC2CC(C)(NCc3ccc(-c4ccc(Cl)cc4)cc3)C(O)C(C)O2)Oc2ccc(cc2Cl)C1O (stereo not drawn) [Compound 112]	2
CC(=O)NCCCCC(NC(C)=O)C(=O)NC1C(=O)NC(CC(N)=O)C(=O)NC2C(=O)NC3C(=O)NC(C(=O)NC(C(=O)O)c4cc(O)cc(O)c4-c4cc3ccc4O)C(O)c3ccc(c(Cl)c3)Oc3cc2cc(c3OC2OC(CO)C(O)C(O)C2OC2CC(C)(NCc3ccc(-c4ccc(Cl)cc4)cc3)C(O)C(C)O2)Oc2ccc(cc2Cl)C1O (stereo not drawn) [Compound 123]	2
CC(=O)NC(CC[S+](C)[O-])C(=O)NC1C(=O)NC(CC(N)=O)C(=O)NC2C(=O)NC3C(=O)NC(C(=O)NC(C(=O)O)c4cc(O)cc(O)c4-c4cc3ccc4O)C(O)c3ccc(c(Cl)c3)Oc3cc2cc(c3OC2OC(CO)C(O)C(O)C2OC2CC(C)(NCc3ccc(-c4ccc(Cl)cc4)cc3)C(O)C(C)O2)Oc2ccc(cc2Cl)C1O (stereo not drawn) [Compound 124]	2
CC1OC(OC2C(Oc3c4cc5cc3Oc3ccc(cc3Cl)C(O)C3NC(=O)C(NC(=O)C5NC(=O)C(CC(N)=O)NC(=O)C(NC(=O)C(CCS(C)(=O)=O)NC(=O)OC(C)(C)C)C(O)c5ccc(c(Cl)c5)O4)c4ccc(O)c(c4)-c4c(O)cc(O)cc4C(C(=O)O)NC3=O)OC(CO)C(O)C2O)CC(C)(NCc2ccc(-c3ccc(Cl)cc3)cc2)C1O (stereo not drawn) [Compound 143]	2
CC1OC(OC2C(Oc3c4cc5cc3Oc3ccc(cc3Cl)[C@@H](O)[C@@H](NC(=O)CC3NC(=O)NC3=O)C(=O)N[C@@H](CC(N)=O)C(=O)N[C@H]5C(=O)NC3C(=O)N[C@H](C(=O)N[C@@H](C(=O)O)c5cc(O)cc(O)c5-c5cc3ccc5O)[C@H](O)c3ccc(c(Cl)c3)O4)OC(CO)C(O)C2O)CC(C)(NCc2ccc(-c3ccc(Cl)cc3)cc2)C1O (stereo partly drawn) [Compound 163]	2
CC1OC(OC2C(Oc3c4cc5cc3Oc3ccc(cc3Cl)C(O)C(NC(=O)C(C)(C)NC(N)=O)C(=O)NC(CC(N)=O)C(=O)NC5C(=O)NC3C(=O)NC(C(=O)NC(C(=O)O)c5cc(O)cc(O)c5-c5cc3ccc5O)C(O)c3ccc(c(Cl)c3)O4)OC(CO)C(O)C2O)CC(C)(NCc2ccc(-c3ccc(Cl)cc3)cc2)C1O (stereo not drawn) [Compound 190]	2
CSCCC(NC=O)C(=O)NC1C(=O)NC(CC(N)=O)C(=O)NC2C(=O)NC3C(=O)NC(C(=O)NC(C(=O)O)c4cc(O)cc(O)c4-c4cc3ccc4O)C(O)c3ccc(c(Cl)c3)Oc3cc2cc(c3OC2OC(CO)C(O)C(O)C2OC2CC(C)(NCc3ccc(-c4ccc(Cl)cc4)cc3)C(O)C(C)O2)Oc2ccc(cc2Cl)C1O (stereo not drawn) [Compound 196]	2
CC1OC(OC2C(Oc3c4cc5cc3Oc3ccc(cc3Cl)C(O)C3NC(=O)C(NC(=O)C5NC(=O)C(CC(N)=O)NC(=O)C(NC(=O)CCC(=O)NN(C)C)C(O)c5ccc(c(Cl)c5)O4)c4ccc(O)c(c4)-c4c(O)cc(O)cc4C(C(=O)O)NC3=O)OC(CO)C(O)C2O)CC(C)(NCc2ccc(-c3ccc(Cl)cc3)cc2)C1O (stereo not drawn) [Compound 203]	2
